Data taken from patent US9410152B2, “Use of microrna molecules to influence skin pigmentation” (CHANEL PARFUMS BEAUTE, priority 2011, dated 2016).
“Also recorded” adds a separate entry of the source.

Columns and labels:
Assay type in all cases: cell-based, human
MNT-1 cells [1] = assay: Measurement of the relative melanin concentration (absorbance at 470 nm of protein lysates); details: 50 nM mimetic, day 12, relative to transfection control cel-miR-239b (miCtrl), normalized to protein
Description: (§1) 4×10^5 MNT-1 cells were seeded per well in a 6-well plate (#353046, Falcon) on day-1. On day 0, the cells were transfected with 50 nM of mimetic of the miRNAs (hsa-mir-137 # C-300604-07-005, hsa-mir-7 # C-300547-05-0005, hsa-mir-330-5p # C-301082-01-0005, negative control # NC-002000-01-05, Dharmacon), using 5 μL of Lipofectamine 2000 (#1668-019, Invitrogen). On day 1, the medium was changed. On day 3, the cells were trypsinized and seeded at 4×10^5 cells per well. On day 4, the cells were transfected again with 50 nM of mimetic of the miRNAs (see day 0). On day 5, the medium was changed. On day 7, the cells were trypsinized and seeded at 4×10^5 cells per well. On day 8, the cells were transfected with 50 nM of mimetic of the miRNAs (see day 0). On day 9, the medium was changed. On day 10, the cells were trypsinized and divided into two (from one by six wells to two by six wells). On day 12, one six-well plate was used for lysis of the RNA and the other for lysis of the proteins. As positive control of depigmentation, MNT-1 cells were incubated with 3.5 mM of kojic acid (Sigma K3125-5G) for 12 days. The cells were distributed as described and the kojic acid was renewed with the medium every 4 days. The percentage inhibition of the kojic acid is of the order of 10%.
On day 12, the cells were washed in PBS twice and lysed in 75 μL/well of a 6-well dish of lysis buffer for the RIPA proteins. The protein lysates were transferred to 1.5-ml Eppendorf tubes and vortexed lightly to homogenize the solution before putting the tube on ice or for storage at −80° C. 2 μL of protein lysate was used for measuring the absorbance of the melanin at 470 nm using the NanoVue spectrophotometer (GE Healthcare). The protein lysate of the unpigmented XB2 keratinocytes was used as calibrator sample (reference=0). To detect the relative quantity of melanin, all the samples were compared with the transfection control sample (miCtrl). The absorbance at 470 nm of the sample miCtrl was fixed at 1 as reference. In addition, the melanin absorption at 470 nm was normalized taking into account the concentration of proteins of each sample relative to miCtrl.

MNT-1 cells [2] = assay: Overall pigmentation levels (photographs of protein lysates on day 12); details: 50 nM mimetic, 12 days, relative to negative control, photographs not shown
Description: as §1, with “10%. […] The XB2 keratinocytes serve as control for the unpigmented cells. […] As positive control of depigmentation, the MNT-1 cells were treated with kojic acid.” for “10%.”

mRNA TYR = assay: qRT-PCR mRNA expression of TYR; details: MNT-1 cells, 50 nM mimetic, day 12, relative to cel-miR-239b, ΔΔCt
Description: 4×10^5 MNT-1 cells were seeded per well in a 6-well plate (#353046, Falcon) on day-1. On day 0, the cells were transfected with 50 nM of mimetic of the miRNAs (hsa-mir-137 # C-300604-07-005, hsa-mir-7 # C-300547-05-0005, hsa-mir-330-5p # C-301082-01-0005, negative control # NC-002000-01-05, Dharmacon), using 5 μL of Lipofectamine 2000 (#1668-019, Invitrogen). On day 1, the medium was changed. On day 3, the cells were trypsinized and seeded at 4×10^5 cells per well. On day 4, the cells were transfected again with 50 nM of mimetic of the miRNAs (see day 0). On day 5, the medium was changed. On day 7, the cells were trypsinized and seeded at 4×10^5 cells per well. On day 8, the cells were transfected with 50 nM of mimetic of the miRNAs (see day 0). On day 9, the medium was changed. On day 10, the cells were trypsinized and divided into two (from one by six wells to two by six wells). On day 12, one six-well plate was used for lysis of the RNA and the other for lysis of the proteins. As positive control of depigmentation, MNT-1 cells were incubated with 3.5 mM of kojic acid (Sigma K3125-5G) for 12 days. The cells were distributed as described and the kojic acid was renewed with the medium every 4 days. The percentage inhibition of the kojic acid is of the order of 10%. 700 μL of Qiazol lysis buffer (Qiagen) was added per well of a six-well dish after washing the cells twice with PBS. The total RNA was isolated using the miRNeasy Mini kit (Qiagen) according to the manufacturer's protocol. The total RNA was eluted in 30 μl of water without RNAse. The concentration of RNA was measured using the NanoVue spectrophotometer (GE Healthcare). 1 μg of total RNA was reverse-transcribed using the MLV RT-Enzyme system (Invitrogen) in 60 μL of reaction to produce the corresponding cDNA. Real-time PCR was performed using the IQTM SYBR® Green supermix (Biorad) (final reaction volume of 25 μL: 23 μL of Mix Master and 2 μL of cDNA). The thermocycling conditions ([…], Biorad) were as follows: 95° C. for 90 s, and 40 cycles at 95° C. for 30 s, 60° C. for 60 s and 95° C. for 10 s. The concentrations of primers and the sequences are given in Table 5 below: The relative quantity was evaluated using the ΔΔCt comparative method. Briefly, this method compares the quantity of expression of the target gene relative to an endogenous control TBP, within a sample for normalizing the expression. Within a group of samples, a suitable sample is selected as the calibrator sample ([…]). Each sample is then compared with a designated reference to give the relative expression of the target gene relative to this reference sample.

Substance | relative levels of melanin (absorbance at 470 nm) (MNT-1 cells [1]) | overall pigmentation levels (MNT-1 cells [2]) | overall pigmentation levels (MNT-1 cells [2]; listed as miR-7) | levels of mRNA TYR (mRNA TYR) | levels of mRNA TYR (mRNA TYR; listed as miR-7)
hsa-miR-7: mimetic of miRNA hsa-mir-7 (Dharmacon C-300547-05-0005); mature hsa-miR-7-5p sequence SEQ ID NO: 2 (UGGAAGACUAGUGAUUUUGUUGU; commercial mimic, chemistry not given here; listed as Homo sapiens) | slight increase | do not show a significant reduction | do not show any significant effect | decreased | appears to reduce
hsa-miR-137: mimetic of miRNA hsa-mir-137 (Dharmacon C-300604-07-005); mature sequence SEQ ID NO: 3 (UUAUUGCUUAAGAAUACGCGUAG; commercial mimic, chemistry not given here; listed as Homo sapiens) | reduction; also recorded: decrease in melanin | significant reduction | – | decreased; also recorded: significantly reduced | –
hsa-miR-330-5p: mimetic of miRNA hsa-mir-330-5p (Dharmacon C-301082-01-0005); mature sequence 5'-UCUCUGGGCCUGUGUCUUAGGC-3' (SEQ ID NO: 1) (UCUCUGGGCCUGUGUCUUAGGC; mimic duplex, passenger strand not given here; listed as Homo sapiens) | reduction; also recorded: decrease in melanin | significant reduction | – | decreased; also recorded: appears to reduce | –
